Values of other authors, collected in US9278076B2, “Chronotherapeutic dosage forms” (Endo Pharmaceuticals Inc., priority 2003, dated 2016).

Conditions: glucocorticoid equivalence chart

C[C@]12CCC(=O)C=C1CC[C@@H]1[C@@H]2[C@@H](O)C[C@@]2(C)[C@H]1CC[C@]2(O)C(=O)CO [Hydrocortisone]
Approximate Equivalent Dose: 20 mg

C[C@]12C=CC(=O)C=C1CC[C@@H]1[C@@H]2[C@@H](O)C[C@@]2(C)[C@H]1CC[C@]2(O)C(=O)CO [Prednisolone]
Approximate Equivalent Dose: 5 mg

C[C@]12CCC(=O)C=C1CC[C@@H]1[C@@H]2C(=O)C[C@@]2(C)[C@H]1CC[C@]2(O)C(=O)CO [Cortisone]
Approximate Equivalent Dose: 25 mg

C[C@]12C=CC(=O)C=C1CC[C@H]1[C@@H]3C[C@@H](O)[C@](O)(C(=O)CO)[C@@]3(C)C[C@H](O)[C@@]12F [Triamcinolone]
Approximate Equivalent Dose: 4 mg
